Assay results reported in the supplement of paper PMC10883282.
± gives the standard deviation of the averaged measurements.

System: SW982
Test: relative viability vs DMSO control (72 h) (fraction); higher = more viable cells
Procedure, shortened: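 Sarcoma cell lines were grown in 384-well plates seeded toward 80–90% confluence and exposed 24 h later to serially diluted compound. After 72 h at 37 °C and 5% CO2, with 0.1% DMSO vehicle and a 5 µM positive control on the plates, ATPLite was read. Relative viability, given as percent growth averaged over up to triplicate wells, was rescaled so that 1 is full and 0 is none.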

SMILES | relative viability (0.00017 µM) | relative viability (0.00051 µM) | relative viability (0.00152 µM) | relative viability (0.00457 µM) | relative viability (0.01372 µM) | relative viability (0.04115 µM) | relative viability (0.1235 µM) | relative viability (0.3704 µM) | relative viability (1.111 µM) | relative viability (3.333 µM) | relative viability (10 µM)
COc1cc2nccc(Oc3ccc(NC(=O)Nc4cc(C)on4)c(Cl)c3)c2cc1OC [Tivozanib] | 1.06 ± 0.039 | 1.07 ± 0.048 | 1.06 ± 0.021 | 1.05 ± 0.037 | 1.08 ± 0.038 | 1.07 ± 0.033 | 1.08 ± 0.017 | 1.08 ± 0.046 | 1.07 ± 0.058 | 0.985 ± 0.029 | 0.571 ± 0.021
C[C@]1(O)C[C@@H](c2nc(-c3ccc4ccc(-c5ccccc5)nc4c3)c3c(N)nccn32)C1 [Linsitinib] | 1.01 ± 0.028 | 1.04 ± 0.026 | 1.03 ± 0.028 | 1.05 ± 0.031 | 1.05 ± 0.028 | 1.02 ± 0.041 | 0.918 ± 0.041 | 0.875 ± 0.035 | 0.824 ± 0.045 | 0.79 ± 0.035 | 0.583 ± 0.021
C=CC(=O)Nc1cccc(Oc2nc(Nc3ccc(N4CCN(C)CC4)cc3)nc3ccsc23)c1 [Olmutinib] | 1.01 ± 0.024 | 1.01 ± 0.02 | 0.98 ± 0.01 | 1 ± 0.028 | 1.02 ± 0.016 | 1.01 ± 0.025 | 1 ± 0.011 | 0.969 ± 0.077 | 0.822 ± 0.065 | 0.663 ± 0.029 | 0.317 ± 0.033
O=C(Nc1cnn2ccc(N3CCC[C@@H]3c3cc(F)ccc3F)nc12)N1CC[C@H](O)C1 [Larotrectinib] | 1.02 ± 0.015 | 1 ± 0.022 | 1.01 ± 0.036 | 1.07 ± 0.026 | 1.07 ± 0.031 | 1.058 ± 0.0089 | 1.05 ± 0.025 | 1.02 ± 0.019 | 1.05 ± 0.027 | 1.05 ± 0.032 | 1.01 ± 0.02
